Patent US20240091372A1, “ANTI-DOPPEL ANTIBODY DRUG CONJUGATES” (SEOUL NATIONAL UNIVERSITY R&DB FOUNDATION, priority 2022, published 2024)
No end group written: not given here. *: point of attachment. MMAE = monomethyl auristatin E, CC[C@H](C)[C@@H]([C@@H](CC(=O)N1CCC[C@H]1[C@H](OC)[C@@H](C)C(=O)N[C@H](C)[C@@H](O)c1ccccc1)OC)N(C)C(=O)[C@@H](NC(=O)[C@H](C(C)C)N(C)*)C(C)C; p‑aminobenzylcarbamate = NC(=O)OCc1ccc(N*)cc1

B1: 3H9-KGDEVD-MMAE (name=SEQ ID NO:65; structure=SEQ ID NO:66) (antibody, human IgG1, kappa, V domains shown)
VH: EVQLVESGGGLVQPGGSLRLSCAASGFTFSSYAMSWVRQAPGKGLEWVSGISGSGSRTDYADSVKGRFTISRDNSKNTLYLQMNSLRAEDTAVYYCAKVYTYTRGFAFDLWGQGTLVTVSS
VL: DIQMTQSPSSLSASVGDRVTITCRASQSISNYLNWYQQKPGKAPKLLIYAASTLQSGVPSRFSGSGSGTDFTLTISSLQPEDFATYYCQQSYSFPYTFGQGTKVEIKR
modifications: maleimide-KGDEVD-MMAE (SEQ ID NO:77) linker-payload on reduced Cys residues of the partially reduced mAb; positions and chain not stated
B2: 3H9-vc-MMAE (antibody, human IgG1, kappa, V domains shown)
VH: B1 VH
VL: B1 VL
modifications: mc-Val-Cit-PABA-MMAE linker-payload on reduced Cys residues of the partially reduced mAb; positions and chain not stated

Columns and labels:
[1] = tested on: HCT116 xenograft tumor; test: In vivo efficacy in HCT116 xenograft tumor model; design: species or system balb-c/nu mice; settings: for tumor growth suppression (KGDEVD-MMAE ADCs): same tumor model, FIG. 7
Experimental: To assess the anti-tumor efficacy of anti-doppel ADCs, an HCT116 xenograft tumor model was used. HCT116 cells (1×10^^7 cells/mouse) were inoculated into the left flank of balb-c/nu mice. When the average tumor volume reach 70-100 mm^3, ADC was administered intravenously every 4 days for a total of 4 times. Tumor volume was measured every 4 days until the end of the experiments.

[2] = biological target: doppel (human, UniProt Q9UKY0 26-152); test: cell-based or functional assay
Chain of doppel (Q9UKY0 26-152): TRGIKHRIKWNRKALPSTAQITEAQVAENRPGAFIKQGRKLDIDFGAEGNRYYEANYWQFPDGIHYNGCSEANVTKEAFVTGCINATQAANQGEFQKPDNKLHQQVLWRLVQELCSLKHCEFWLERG

Molecule	tumor growth suppression (KGDEVD-MMAE ADCs) [1]	IC50 (nM), cytotoxicity on HCT116 cells, viability after 72 hours [2]	also measured
3H9-DEVD-MMAE: ADC prepared as 3H9-KGDEVD-MMAE except using maleimide-DEVD-MMAE (DEVD-{p‑aminobenzylcarbamate-MMAE}; not fully specified (N-terminus); also: conjugated to mAb 3H9 through maleimide)	–	–	tumor growth suppression, ADCs with different linkers ([1]; HCT116 xenograft, FIG. 6): effectively suppressed tumor growth
4D1-KGDEVD-MMAE: ADC prepared as 3H9-KGDEVD-MMAE using anti-doppel mAb 4D1 (maleimide-KGDEVD-{p‑aminobenzylcarbamate-MMAE}; also: conjugated to mAb 4D1 through maleimide)	effectively suppressed tumor growth	–	–
3D5-KGDEVD-MMAE: ADC prepared as 3H9-KGDEVD-MMAE using anti-doppel mAb 3D5 (maleimide-KGDEVD-{p‑aminobenzylcarbamate-MMAE}; also: conjugated to mAb 3D5 through maleimide)	effectively suppressed tumor growth	–	–
B1	–	39.3 nM	–
B2	–	28.6 nM	–
